This note sets out measurements from patent publication US7041785B1, “B1-bradykinin receptor antagonists and use thereof” (Université de Sherbrooke, priority 1996, dated 2006).

SMILES strings stand for the structures. Like-named read-outs stand apart in the source and are kept apart here. Non-standard residues stand in square brackets, D forms with d. Residues, ends and D or L forms follow the SMILES beside them. Tyr(3,5-I2) = N[C@@H](Cc1cc(I)c(O)c(I)c1)C(=O)O; 2Nal = N[C@@H](Cc1ccc2ccccc2c1)C(=O)O; d2Nal = N[C@H](Cc1ccc2ccccc2c1)C(=O)O; Tic = O=C(O)[C@@H]1Cc2ccccc2CN1; dTic = O=C(O)[C@H]1Cc2ccccc2CN1; Ahx = NCCCCCC(=O)O; Sar = CNCC(=O)O

For assay [1], the target named is T1, B2 receptor (Oryctolagus cuniculus, UniProt Q28642).
T1 sequence (Q28642 1-367): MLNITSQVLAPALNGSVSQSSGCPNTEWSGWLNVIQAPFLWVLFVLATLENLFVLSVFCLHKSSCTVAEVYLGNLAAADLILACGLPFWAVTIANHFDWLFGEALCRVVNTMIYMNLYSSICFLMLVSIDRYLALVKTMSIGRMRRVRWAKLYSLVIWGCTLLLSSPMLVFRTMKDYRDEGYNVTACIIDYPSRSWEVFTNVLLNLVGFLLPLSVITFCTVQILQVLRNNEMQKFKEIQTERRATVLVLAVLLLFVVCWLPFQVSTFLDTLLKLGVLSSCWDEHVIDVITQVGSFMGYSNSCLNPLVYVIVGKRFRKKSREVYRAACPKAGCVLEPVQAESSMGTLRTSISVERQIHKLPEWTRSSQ
The following applies: vs BK; captopril 1 μmol/L; Inactive = no detectable antagonistic effect at ≦ 10 μg/ml.

Assay [2] addresses T2, human B1 receptor (Homo sapiens, UniProt P46663).
T2 sequence (P46663 1-353): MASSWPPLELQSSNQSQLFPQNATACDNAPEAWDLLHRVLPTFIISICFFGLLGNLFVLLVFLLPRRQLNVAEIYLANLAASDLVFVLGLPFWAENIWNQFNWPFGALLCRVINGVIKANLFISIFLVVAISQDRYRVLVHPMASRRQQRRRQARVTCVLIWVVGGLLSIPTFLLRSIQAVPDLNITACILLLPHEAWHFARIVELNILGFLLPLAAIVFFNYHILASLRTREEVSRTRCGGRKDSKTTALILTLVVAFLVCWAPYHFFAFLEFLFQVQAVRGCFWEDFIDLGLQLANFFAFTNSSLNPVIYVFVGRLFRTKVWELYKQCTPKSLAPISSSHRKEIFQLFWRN
The assay can be described thus: cell-based. The settings on record: for Human umbilical vein B1 receptor α^E: residual agonistic activity at 10 μg/mL. The gist of the method: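 Isolated rabbit jugular vein (captopril 1 μmol/L), guinea pig ileum, endothelium-free rabbit aorta and human umbilical vein, in Krebs at 37 °C, with isometric tension recorded. Agonism was tested at 10 μg/mL.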

Assay [3] concerns the target T3, human B2 receptor (Homo sapiens, UniProt P30411).
T3 construct: Helical strips of HUV were prepared according to Gobeil et al; from tissue; host or cells: human umbilical vein helical strips
T3 sequence (P30411 1-391): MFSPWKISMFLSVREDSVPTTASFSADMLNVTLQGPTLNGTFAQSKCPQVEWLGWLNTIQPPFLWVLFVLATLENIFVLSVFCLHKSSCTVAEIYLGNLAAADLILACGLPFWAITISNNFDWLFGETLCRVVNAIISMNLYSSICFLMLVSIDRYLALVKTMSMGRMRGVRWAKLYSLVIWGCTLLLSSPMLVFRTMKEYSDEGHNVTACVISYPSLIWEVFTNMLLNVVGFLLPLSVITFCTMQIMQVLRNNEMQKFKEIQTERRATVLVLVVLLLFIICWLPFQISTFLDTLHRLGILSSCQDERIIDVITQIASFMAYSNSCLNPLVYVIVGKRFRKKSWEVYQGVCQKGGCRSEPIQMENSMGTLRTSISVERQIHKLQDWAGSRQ
The assay can be described thus: Human umbilical vein bioassay in presence of Lys(Leu8)desArg9BK, B2 receptor. It is filed as cell-based. The following applies: vs BK, Lys(Leu8)desArg9BK 1 μmol/L present. The text has this: Tissues were taken from New Zealand white rabbits (1.5–2.5 kg) and Dunken Hartley guinea pigs (250–350 g) of either sex, killed by stunning and exsanguination. Umbilical cords were taken from healthy women 22–40 years old after spontaneous delivery at term. The rabbit jugular vein (RbJV), the guinea pig ileum (GPI), two preparations containing B2 receptors, the rabbit aorta (RbA) (B1 receptor) and the human umbilical vein (HUV), a mixed preparation containing both B1 and B2 receptors^10, were used. Helical strips of RbJV treated with 1 μmol/L of captopril to avoid peptide degradation by the angiotensin-converting enzyme (ACE), alias kininase II were prepared according to Gaudreau et al.^11 Helical strips of RbA devoid of endothelium were prepared according to Furchgott and Bhadrakom^12. Longitudinal segments of GPI were prepared with the procedure described by Rang^13. Helical strips of HUV were prepared according to Gobeil et al.^10. The tissues were suspended in 10-ml organ baths containing warm (37EC), oxygenated (95% O2–5% CO2) Krebs solution of the following composition in mmol/L; NaCl: 118.1; KCl: 4.7; CaCl26H2O: 2.5; KH2PO4: 1.2; MgSO47H2O: 1.18; NaHCO3: 25.0 and D-Glucose: 5.5. The RbA and the HUV were stretched with an initial tension of 2 g, whereas the RbJV and the GPI were loaded with 0.5 g. Changes of tension produced by the various agents were measured with Grass isometric transducers (model FT 03C, Grass Instrument Co., Quincy, Mass.). […] Before testing the drugs, the tissues were allowed to equilibrate for 60–120 min during which time the tissues were repeatedly washed and the tension readjusted every 15 min.
At the beginning of each experiment, a submaximal dose of bradykinin (BK) (9 nmol/L), was applied repeatedly on the RbJV, the GPI or the HUV to ensure that tissues responded with stable contractions. […] A similar protocol was used for the HUV.
Repeated applications of a singl and double concentration of BK (on RbJV, GPI and HUV) and of desArg^9BK (RbA and HUV) were made in the absence and in presence of the various peptides to evaluate their apparent affinities as antagonists, in terms of pA2 (-log10 of the molar concentration of antagonist that reduces the effect of a double concentration of agonist to that of a single one)^14. The antagonists were applied 10 min before measuring the myotropic effects of either BK (the B2 receptor agonist) or desArg^9BK (the B1 receptor agonist). […] All kinin antagonists were initially applied to tissues at concentration of 10 μg/mL to measure their potential agonistic activities (α^E) in comparison with BK (in the B2 receptor preparations) or desArg^9BK (in the B1 receptor preparations).

[4] abbreviates: Human umbilical vein B1 receptor pA2, vs desArg9BK, HOE140 400 nmol/L present.

With `CNCC(=O)N[C@@H](CCCNC(=N)N)C(=O)N1CCC[C@H]1C(=O)N1CCC[C@H]1C(=O)NCC(=O)N[C@@H](Cc1ccccc1)C(=O)N[C@@H](CO)C(=O)N1Cc2ccccc2C[C@@H]1C(=O)N[C@@H](CC(C)C)C(=O)O` [Compound 9, Sar(D-Tic^7, Leu^8)desArg^9BK] (H-[Sar]RPPGFS[dTic]L-OH; N-terminus and C-terminus assumed), the “Rb.J.V. pA2” value in assay [1] is “Inactive”.
As to `CC[C@H](C)[C@H](NC(=O)[C@H]1Cc2ccccc2CN1C(=O)[C@H](CO)NC(=O)[C@H](Cc1ccccc1)NC(=O)CNC(=O)[C@@H]1CCCN1C(=O)[C@@H]1CCCN1C(=O)[C@H](CCCNC(=N)N)NC(=O)[C@H](N)CCCNC(=N)N)C(=O)O` [Compound 13, D-Arg(D-Tic^7, Ile^8)desArg^9BK] (H-[dR]RPPGFS[dTic]I-OH; N-terminus and C-terminus assumed), the Kb in assay [2] (setting [4]) was 0.0229 µM. Besides, the “Human umbilical vein B2 receptor pA2” value in assay [3] was “Inactive”.
`CC[C@H](C)[C@H](NC(=O)[C@@H]1Cc2ccccc2CN1C(=O)[C@H](CO)NC(=O)[C@H](Cc1ccccc1)NC(=O)CNC(=O)[C@@H]1CCCN1C(=O)[C@@H]1CCCN1C(=O)[C@H](CCCNC(=N)N)NC(=O)[C@H](N)CCCNC(=N)N)C(=O)O` [Compound 14, D-Arg(L-Tic^7, Ile^8)desArg^9BK] (H-[dR]RPPGFS[Tic]I-OH; N-terminus and C-terminus assumed) had a Kb in assay [2] (setting [4]) of 4.68 µM. For the same compound, the “Human umbilical vein B2 receptor pA2” value in assay [3] is “Inactive”.
`CC(=O)N[C@@H](CCCCN)C(=O)N[C@@H](CCCNC(=N)N)C(=O)N1CCC[C@H]1C(=O)N1CCC[C@H]1C(=O)NCC(=O)N[C@@H](Cc1ccccc1)C(=O)N[C@@H](CO)C(=O)N[C@H](Cc1ccc2ccccc2c1)C(=O)N[C@@H](CC(C)C)C(=O)O` [Compound 18, AcLys(D-βNal^7, Leu^8)desArg^9BK] (Ac-KRPPGFS[d2Nal]L-OH; C-terminus assumed) gave a Kb in assay [2] (setting [4]) of 0.0355 µM. Besides, the “Human umbilical vein B1 receptor α^E” value in assay [2] came out at 0. Besides, in assay [3], the “Human umbilical vein B2 receptor pA2” value is given as “Inactive”.
In turn, `CC[C@H](C)[C@H](NC(=O)[C@@H](Cc1ccc2ccccc2c1)NC(=O)[C@H](CO)NC(=O)[C@H](Cc1ccccc1)NC(=O)CNC(=O)[C@@H]1CCCN1C(=O)[C@@H]1CCCN1C(=O)[C@H](CCCN=C(N)N)NC(=O)[C@H](CCCCN)NC(C)=O)C(=O)O` [Compound 19, AcLys(D-βNal^7, Ile^8)desArg^9BK] (Ac-KRPPGFS[d2Nal]I-OH) gave a Kb in assay [2] of 0.00316 µM.
`CC[C@H](C)[C@H](NC(=O)[C@H](Cc1ccc2ccccc2c1)NC(=O)[C@H](CO)NC(=O)[C@H](Cc1ccccc1)NC(=O)CNC(=O)[C@@H]1CCCN1C(=O)[C@@H]1CCCN1C(=O)[C@H](CCCNC(=N)N)NC(=O)[C@H](CCCCN)NC(C)=O)C(=O)O` [Compound 20, AcLys(L-βNal^7, Ile^8)desArg^9BK] (Ac-KRPPGFS[2Nal]I-OH; C-terminus assumed) had a Kb in assay [2] (setting [4]) of 6.92 µM. Further, in assay [2], the “Human umbilical vein B1 receptor α^E” value was 0. Also, in assay [3], the “Human umbilical vein B2 receptor pA2” value was “Inactive”.
For the compound `CC(C)C[C@H](NC(=O)[C@@H](Cc1ccc2ccccc2c1)NC(=O)[C@H](CO)NC(=O)[C@H](Cc1ccccc1)NC(=O)CNC(=O)[C@@H]1CCCN1C(=O)[C@@H]1CCCN1C(=O)[C@H](CCCNC(=N)N)NC(=O)[C@H](N)CCCNC(=N)N)C(=O)O` [Compound 24, D-Arg(D-βNal^7, Leu^8)desArg^9BK] (H-[dR]RPPGFS[d2Nal]L-OH; N-terminus and C-terminus assumed), the Kb in assay [2] (setting [4]) was 0.0501 µM. The “Human umbilical vein B2 receptor pA2” value in assay [3] is recorded as “Inactive”.
For `CC[C@H](C)[C@H](NC(=O)[C@@H](Cc1ccc2ccccc2c1)NC(=O)[C@H](CO)NC(=O)[C@H](Cc1ccccc1)NC(=O)CNC(=O)[C@@H]1CCCN1C(=O)[C@@H]1CCCN1C(=O)[C@H](CCCNC(=N)N)NC(=O)CNC)C(=O)O` [Compound 26, Sar(D-βNal^7, Ile^8)desArg^9BK] (H-[Sar]RPPGFS[d2Nal]I-OH; N-terminus and C-terminus assumed) the same measures were 0.0479 µM and “Inactive”.
In the case of `CC(=O)N[C@@H](Cc1ccc(O)cc1)C(=O)NCCCCCC(=O)N[C@@H](CCCCN)C(=O)N[C@@H](CCCNC(=N)N)C(=O)N1CCC[C@H]1C(=O)N1CCC[C@H]1C(=O)NCC(=O)N[C@@H](Cc1ccccc1)C(=O)N[C@@H](CO)C(=O)N1CCC[C@H]1C(=O)N[C@@H](CC(C)C)C(=O)O` [Compound 27, AcTyrεAhxLys(Leu^8)desArg^9BK], the “Rb.J.V. pA2” value in assay [1] was “Inactive”.
With `CNCC(=O)N[C@@H](Cc1ccc(O)cc1)C(=O)NCCCCCC(=O)N[C@@H](CCCCN)C(=O)N[C@@H](CCCNC(=N)N)C(=O)N1CCC[C@H]1C(=O)N1CCC[C@H]1C(=O)NCC(=O)N[C@@H](Cc1ccccc1)C(=O)N[C@@H](CO)C(=O)N1CCC[C@H]1C(=O)N[C@@H](CC(C)C)C(=O)O` [Compound 28, SarTyrεAhxLys(Leu^8)desArg^9BK], the “Rb.J.V. pA2” value in assay [1] is on record as “Inactive”.
Take `CC[C@H](C)[C@H](NC(=O)[C@@H](Cc1ccc2ccccc2c1)NC(=O)[C@H](CO)NC(=O)[C@H](Cc1ccccc1)NC(=O)CNC(=O)[C@@H]1CCCN1C(=O)[C@@H]1CCCN1C(=O)[C@H](CCCNC(=N)N)NC(=O)[C@H](CCCCN)NC(=O)CCCCCNC(=O)[C@H](Cc1ccc(O)cc1)NC(=O)CNC)C(=O)O` [Compound 29, SarTyrεAhxLys(D-βNal^7, Ile^8)desArg^9BK] (H-[Sar]Y[Ahx]KRPPGFS[d2Nal]I-OH; N-terminus and C-terminus assumed): in assay [2] (setting [4]), the Kb is 0.00407 µM. The “Human umbilical vein B2 receptor pA2” value in assay [3] was “Inactive”.
Taken in the same sequence, the figures for `CC[C@H](C)[C@H](NC(=O)[C@@H](Cc1ccc2ccccc2c1)NC(=O)[C@H](CO)NC(=O)[C@H](Cc1ccccc1)NC(=O)CNC(=O)[C@@H]1CCCN1C(=O)[C@@H]1CCCN1C(=O)[C@H](CCCNC(=N)N)NC(=O)[C@H](CCCCN)NC(=O)CCCCCNC(=O)[C@H](Cc1cc(I)c(O)c(I)c1)NC(=O)CNC)C(=O)O` [Compound 30, SarTyr(3,5-I)εAhxLys(D-βNal^7, Ile^8)desArg^9BK] (H-[Sar][Tyr(3,5-I2)][Ahx]KRPPGFS[d2Nal]I-OH; N-terminus and C-terminus assumed) were 0.00479 µM and “Inactive”.
